Data published in US8338151B2, “Method for creating intracellular artificial nanostructures in situ” (The Hong Kong University of Science and Technology, priority 2005, dated 2012).

Assay: Minimum gelation concentration / hydrogelation ability
Type: physicochemical
Source text: In this embodiment, precursors bearing the general formula C10H7CH2C(O)—ZZ (where Z is the residue of an amino acid) was used.
For this precursor, it is possible to use the enzyme kinase/phosphatase pair as an enzyme switch because (i) FF is prone to self-assembly (ii) Nap-FF gels water effectively (at 0.8 wt %), and (iii) the residue of Glu-Tyr (EY) accepts phosphorylation in the presence of a tyrosine kinase and the phosphorylation process can be reversed by phosphatase.
One of the motivations to use naphthalene (Nap) rather than N-(fluorenyl-methoxycarbonyl) (FMOC) is that Nap should be more biocompatible, as evidenced by several clinical drugs consisting of a Nap motif (i. e., propranolol, naphazoline, nafronyl). The glycine (G) was used to connect Nap-FF with EY because glycine is the simplest amino acid. Unlike other pentapeptides, FFGEY is not a known epitope of any protein, but it carries the basic structural requirement to serve as the substrate of the tyrosine kinase. After obtaining precursor IIIa through solid-phase synthesis, the hydrogelation ability of IIIa was tested. Via a slight adjustment of pH (from 7.8 to 7.5), IIIa forms a transparent hydrogel in water at 0.6 wt %). The successful hydrogelation of IIIa implies that Nap-FF also may act as a useful motif to conjugate with other amino acid residues to construct hydrogelators. […]

minimum gelation concentration (mgc): ca. 0.4% | concentration at which a hydrogel forms in water (water): 0.8 wt %
SMILES: O=C(Cc1ccc2ccccc2c1)N[C@@H](Cc1ccccc1)C(=O)N[C@@H](Cc1ccccc1)C(=O)O [C10H7CH2C(O)-L-Phe-L-Phe]
